The target in one series is HDAC6 (Homo sapiens (Human), UniProt Q9UBN7). Put plainly: HDAC6 enzymatic activity assay. The format is biochemical. On the procedure: The inhibitory activity of the compounds of the present application against HDAC6 was evaluated by an enzymatic activity assay. HDAC6 (Abcam), test compounds, and a 20 µM substrate solution (Ac-GAK(Ac)-AMC) were each added to a 384-well plate, and the plate was incubated at 37° C. for 30 min. […] and […] were added, and the plate was incubated at room temperature for 15 min. […] IC50 was obtained by fitting using GraphPadPrism 7.0 software.
Sequence of HDAC6 (Q9UBN7 whole entry): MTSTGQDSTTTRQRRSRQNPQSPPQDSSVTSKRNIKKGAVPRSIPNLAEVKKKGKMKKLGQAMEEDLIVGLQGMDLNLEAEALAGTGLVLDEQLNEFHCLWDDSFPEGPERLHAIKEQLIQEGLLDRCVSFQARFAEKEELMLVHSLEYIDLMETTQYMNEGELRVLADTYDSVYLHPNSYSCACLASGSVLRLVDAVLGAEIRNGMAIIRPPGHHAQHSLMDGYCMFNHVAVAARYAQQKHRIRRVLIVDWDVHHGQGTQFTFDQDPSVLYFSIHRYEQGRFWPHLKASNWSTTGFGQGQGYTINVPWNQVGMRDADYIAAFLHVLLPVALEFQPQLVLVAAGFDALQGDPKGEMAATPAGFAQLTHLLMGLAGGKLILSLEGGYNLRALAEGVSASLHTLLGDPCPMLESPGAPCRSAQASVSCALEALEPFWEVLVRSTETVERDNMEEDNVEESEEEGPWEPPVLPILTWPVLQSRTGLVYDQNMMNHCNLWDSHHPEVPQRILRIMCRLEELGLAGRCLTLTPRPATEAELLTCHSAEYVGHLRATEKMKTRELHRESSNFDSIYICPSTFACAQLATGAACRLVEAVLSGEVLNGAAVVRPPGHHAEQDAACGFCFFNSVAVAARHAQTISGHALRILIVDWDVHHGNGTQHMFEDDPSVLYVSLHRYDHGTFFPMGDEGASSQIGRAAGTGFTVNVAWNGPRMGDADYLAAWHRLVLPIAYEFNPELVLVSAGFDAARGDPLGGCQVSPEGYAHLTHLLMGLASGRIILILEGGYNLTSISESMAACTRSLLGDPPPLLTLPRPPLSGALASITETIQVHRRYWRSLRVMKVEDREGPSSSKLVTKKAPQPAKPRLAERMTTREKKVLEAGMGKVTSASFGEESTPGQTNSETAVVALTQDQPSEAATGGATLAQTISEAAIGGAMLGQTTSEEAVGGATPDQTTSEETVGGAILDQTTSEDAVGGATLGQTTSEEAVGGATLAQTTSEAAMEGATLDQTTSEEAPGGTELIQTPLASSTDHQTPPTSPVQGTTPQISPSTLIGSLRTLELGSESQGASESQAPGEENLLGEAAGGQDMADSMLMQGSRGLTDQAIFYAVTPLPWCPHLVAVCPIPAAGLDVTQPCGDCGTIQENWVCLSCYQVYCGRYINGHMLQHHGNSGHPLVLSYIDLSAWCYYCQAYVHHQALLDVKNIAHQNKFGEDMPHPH

Series [1] is described as follows: Pharmacokinetic test in mice (IV and PO). The format is in vivo, BALB/c mice. As to conditions: for Cmax / AUC(0-inf) / AUC(0-t) / MRT inf / Vd / Tmax: BALB/c, mouse, plasma; for MRT inf: read-out: MRT(0-∞); for Vd: read-out: Vz. Here is the method:
In this example, the pharmacokinetic behavior of the compounds after intravenous injection (IV) and intragastric (PO) administration in BALB/c mice was tested.
On the day of administration, mice were weighed for actual body weight and the administration volume was calculated. Each compound was tested in two groups with 3 mice in each group, one group administered by single intravenous injection and the other group of mice by single intragastric administration. Whole blood samples were collected via the orbit at prescribed time points (0.25 h, 0.5 h, 1 h, 2 h, 4 h, 8 h, and 24 h after administration). After blood sample collection, the samples were immediately transferred to labeled commercial sample tubes containing K2-EDTA (0.85-1.15 mg), followed by centrifugation (3200×g, 4° C., 10 min) and plasma collection. The plasma was transferred to a pre-cooled centrifuge tube, frozen in dry ice, and stored in an ultra-low temperature freezer at −60° C. or lower until the LC-MS/MS analysis.
Plasma concentrations were determined by a LC-MS/MS method. Plasma drug concentration data for compounds 1 and 2 were processed in a non-compartmental model using WinNonlin Version 6.3 (Pharsight, Mountain View, CA) pharmacokinetic software. The relevant pharmacokinetic parameters were calculated by a linear logarithmic trapezoid method.

Series [2] can be described thus: Brain-to-blood drug concentration ratio of mice. The format is in vivo. To be noted: mouse, 5 mg/kg PO. Here is the method: On the day of administration, mice were weighed for actual body weight and the administration volume was calculated. In each group of 9 mice, the compound was administered by single intravenous (IV) injection or intragastric (PO) administration. Whole blood samples were collected via the orbit at prescribed time points. After blood sample collection, the samples were immediately transferred to labeled commercial sample tubes containing K2-EDTA (0.85-1.15 mg), followed by centrifugation (3200×g, 4° C., 10 min) and plasma collection. The plasma was transferred to a pre-cooled centrifuge tube, frozen in dry ice, and stored in an ultra-low temperature freezer at −60° C. or lower until the LC-MS/MS analysis. 20 μL of a plasma sample or brain tissue homogenate was taken and 80 μL of an internal standard solution (50 ng/mL solution of propafenone in acetonitrile) was added. The plate was sealed with a film sealer at 165° C., shaken on a micro oscillator (maximum vibration speed) for 10 min, and centrifuged at 4000 rpm for 20 min using a low-speed benchtop centrifuge, 10 μL of supernatant was transferred and 90 μL of acetonitrile was added. The mixture was vortexed and mixed well, and then the plate was sealed with the film sealer at 165° C. After the mixture was vortexed and mixed well, 1 μL of supernatant was taken for LC-MS/MS analysis. Plasma drug concentration data for the compounds were processed in a non-compartmental model using WinNonlin Version 6.3 (Pharsight, Mountain View, CA) pharmacokinetic software. The relevant pharmacokinetic parameters were calculated by a linear logarithmic trapezoid method.
Data processing: brain-to-blood drug concentration ratio of mice at the same time point=drug concentration in brain tissue/drug concentration in plasma

Where [3] appears, read: brain, read-out: Brain drug concentration.
Setting [4] is: plasma, read-out: Blood drug concentration.

This note sets out measurements from patent publication US20250257060A1, “OXADIAZOLE COMPOUND, PHARMACEUTICAL COMPOSITION COMPRISING SAME, AND USE THEREOF” (SUZHOU GENHOUSE BIO CO., LTD., priority 2022, published 2025).

Like-named read-outs stand apart in the source and are kept apart here.

Usually IC50 stands for the point on the concentration scale where inhibition reaches its midpoint. `Cn1cc([C@H]([C@@H](O)c2ccccc2)N2Cc3ccc(-c4nnc(C(F)F)o4)cc3S2(=O)=O)cn1` (single isomer, unassigned) [Compound 79i-A] displayed a concentration for half-maximal inhibition (IC50) at HDAC6 of 0.118 µM.

In the case of `Cn1cc([C@H]([C@@H](O)c2ccccc2)N2Cc3ccc(-c4nnc(C(F)F)o4)cc3S2(=O)=O)cn1` (single isomer, unassigned) [Compound 79i-B], half-maximal inhibition against HDAC6 (IC50) was put at 0.0759 µM.

In the case of `O=S1(=O)c2cc(-c3nnc(C(F)F)o3)ccc2CN1[C@@H](c1ccccn1)[C@H](O)c1ccc(F)cn1` (single isomer, unassigned) [Compound 84j-A-A], the IC50 on HDAC6 was determined as 0.21 µM.

As to `O=S1(=O)c2cc(-c3nnc(C(F)F)o3)ccc2CN1[C@@H](c1ccccn1)[C@H](O)c1ccc(F)cn1` (single isomer, unassigned) [Compound 84j-A-B], the IC50 against HDAC6 is 0.0231 µM.

In turn, `O=S1(=O)c2cc(-c3nnc(C(F)F)o3)ccc2CN1[C@@H](c1ccccn1)[C@H](O)c1ccc(F)cn1` (single isomer, unassigned) [Compound 84j-B] gave an IC50 on HDAC6 of 0.113 µM. This IC50 lies about 4.9-fold higher than the previous one.

`O=S1(=O)c2cc(-c3nnc(C(F)F)o3)ccc2CN1[C@@H](c1ccc(F)cn1)[C@H](O)c1ccc(F)cn1` (single isomer, unassigned) [Compound 88j-A-A] yielded an IC50 against HDAC6 of 0.584 µM. This IC50 is about 5.2-fold higher than that of the molecule before.

Regarding `O=S1(=O)c2cc(-c3nnc(C(F)F)o3)ccc2CN1[C@@H](c1ccc(F)cn1)[C@H](O)c1ccc(F)cn1` (single isomer, unassigned) [Compound 88j-A], half-maximal inhibition on HDAC6 (IC50) required 0.132 µM.

`O=S1(=O)c2cc(-c3nnc(C(F)F)o3)ccc2CN1[C@@H](c1ccc(F)cn1)[C@H](O)c1ccc(F)cn1` (single isomer, unassigned) [Compound 88j-B] registered an IC50 on HDAC6 of 0.668 µM.

`Cn1cc([C@@H](O)[C@H](c2cnn(C)c2)N2Cc3ccc(-c4nnc(C(F)F)o4)cc3S2(=O)=O)cn1` (single isomer, unassigned) [Compound 95j-A] registered an IC50 at HDAC6 of 0.231 µM.

In the case of `Cn1cc([C@@H](O)[C@H](c2cnn(C)c2)N2Cc3ccc(-c4nnc(C(F)F)o4)cc3S2(=O)=O)cn1` (single isomer, unassigned) [Compound 95j-B-A], at HDAC6, the IC50 was 0.0668 µM.

`Cn1cc([C@@H](O)[C@H](c2cnn(C)c2)N2Cc3ccc(-c4nnc(C(F)F)o4)cc3S2(=O)=O)cn1` (single isomer, unassigned) [Compound 95j-B-B] came in with an IC50 against HDAC6 of 0.183 µM.

For the molecule `Cn1cc([C@@H](O)[C@H](c2cnn(C)c2)N2Cc3ccc(-c4nnc(C(F)F)o4)cc3S2(=O)=O)cn1` (single isomer, unassigned) [Compound 95j-B], at HDAC6, the IC50 is 0.0299 µM.

`O=S1(=O)c2cc(-c3nnc(C(F)F)o3)ccc2CN1[C@@H](c1cnccn1)[C@H](O)c1cnccn1` (single isomer, unassigned) [Compound 99j-A-A] had a half-inhibitory concentration (IC50) against HDAC6 of 0.205 µM. This IC50 lies about 6.9-fold higher than the previous one.

In turn, `O=S1(=O)c2cc(-c3nnc(C(F)F)o3)ccc2CN1[C@@H](c1cnccn1)[C@H](O)c1cnccn1` (single isomer, unassigned) [Compound 99j-A-B] gave an IC50 against HDAC6 of 0.0739 µM.

Regarding `O=S1(=O)c2cc(-c3nnc(C(F)F)o3)ccc2CN1[C@@H](c1cnccn1)[C@H](O)c1cnccn1` (single isomer, unassigned) [Compound 99j-A], inhibition against HDAC6 was half-maximal at 0.148 µM (IC50).

`O=S1(=O)c2cc(-c3nnc(C(F)F)o3)ccc2CN1[C@@H](c1cnccn1)[C@H](O)c1cnccn1` (single isomer, unassigned) [Compound 99j-B]: the IC50 on HDAC6 was found to be 0.138 µM.

`O=C(N[C@@H]1CCCC[C@H]1N1Cc2ccc(-c3nnc(C(F)F)o3)cc2S1(=O)=O)C(F)(F)C(F)(F)F` [Compound 3] had an IC50 against HDAC6 of 0.0461 µM.

With `O=C(N[C@@H]1CCCC[C@H]1N1C(=O)c2ccc(-c3nnc(C(F)F)o3)cc2S1(=O)=O)C(F)F` [Compound 6], on HDAC6, the IC50 is 0.395 µM.

Regarding `CC(C)(C)OC(=O)N[C@@H]1CCCC[C@H]1N1Cc2ccc(-c3nnc(C(F)F)o3)cc2S1(=O)=O` [Compound 20], on HDAC6, the IC50 was 0.224 µM.

`O=S1(=O)c2cc(-c3nnc(C(F)F)o3)ccc2CN1[C@@H]1CCCC[C@H]1O` [Compound 21] had an IC50 at HDAC6 of 0.742 µM.

`CS(=O)(=O)N[C@@H]1CCCC[C@H]1N1Cc2ccc(-c3nnc(C(F)F)o3)cc2S1(=O)=O` [Compound 24] displayed an IC50 against HDAC6 of 0.194 µM.

As for `CC(F)(F)C(=O)N[C@@H]1CCCC[C@H]1N1Cc2c(F)cc(-c3nnc(C(F)F)o3)cc2S1(=O)=O` [Compound 39], on HDAC6, the IC50 amounted to 0.261 µM. The IC50 values of the last two molecules are within 1.5-fold of each other.

At HDAC6, `O=C(N[C@@H]1CCCC[C@H]1N1Cc2c(F)cc(-c3nnc(C(F)F)o3)cc2S1(=O)=O)C(F)F` [Compound 40] showed an IC50 of 0.252 µM.

As to `O=S1(=O)c2cc(-c3nnc(C(F)F)o3)ccc2CN1[C@@H]1COCC[C@H]1O` [Compound 49], on HDAC6, the IC50 was determined as 0.82 µM.

Regarding `O=C(N[C@@H]1CCCC[C@H]1N1Cc2ccc(-c3nnc(C(F)F)o3)cc2S1(=O)=O)C(F)(F)F` [Compound 55], the IC50 at HDAC6 stood at 0.0484 µM.

At HDAC6, `O=S1(=O)c2cc(-c3nnc(C(F)F)o3)ccc2CN1Cc1cccc(Cl)c1` [Compound 60] showed a 50% inhibitory concentration (IC50) of 0.49 µM.

Consider `O=S1(=O)c2cc(-c3nnc(C(F)F)o3)ccc2CN1C(c1ccccn1)[C@H](O)c1ccccn1` (stereo partly shown) [Compound 70i-A], for which the IC50 against HDAC6 is 0.137 µM.

The molecule `Cn1cc(-c2ccccc2N2Cc3ccc(-c4nnc(C(F)F)o4)cc3S2(=O)=O)cn1` [Compound 72] displayed a half-inhibitory concentration (IC50) against HDAC6 of 0.399 µM.

Broadly, the AUC(0-inf) is total exposure, with the tail of the curve extrapolated. High values mean high exposure, low ones low exposure. What is called AUC(0-t) is exposure summed from dosing to a finite time, without extrapolation to infinity. Lower therefore signals less exposure. For orientation: Tmax means the time from dosing to the highest level. What is called Kp is tissue or fluid exposure divided by exposure in the circulation. Regarding `Cn1cc([C@@H]([C@H](O)c2ccccc2)N2Cc3ccc(-c4nnc(C(F)F)o4)cc3S2(=O)=O)cn1` [Compound 80], the Cmax in series [1] (po, 5 mg/kg, read-out: C0/Cmax) amounted to 7.17 µM. In series [1] (mice, IV 1 mg/kg), the AUC(0-inf) was 5.28 µM·h, the AUC(0-t) was determined as 5.05 µM·h, the MRT inf came out at 2.6 h and the Vd is 1 L/kg. Moreover, in series [1] (mice, IV 1 mg/kg), the CLz stood at 0.4 L/h/kg and the t½z was determined as 1.8 h. Besides, the Cmax in series [1] (mice, IV 1 mg/kg (C0)) was determined as 1.91 µM. Moreover, in series [1] (mice, PO 5 mg/kg), the AUC(0-inf) is 34 µM·h, the AUC(0-t) was 25.5 µM·h, the Tmax turned out to be 1 h and the MRT inf amounted to 5.6 h. For the same molecule, in series [1] (mice, PO 5 mg/kg), the F came to 101.2% and the t½z came to 4.2 h. For the same molecule, in series [2] (setting [3]), the concentration at 2 h is 0.16 µg/mL. Moreover, the concentration at 8 h in series [2] (brain, 8 h, read-out: Brain drug concentration) turned out to be 0.072 µg/mL. Also, the Kp at 2 h in series [2] (brain/plasma) stood at 0.08. The Kp at 8 h in series [2] (brain/plasma, 8 h) is 0.1. Also, in series [2] (setting [4]), the concentration at 2 h was determined as 1.91 µg/mL. The concentration at 8 h in series [2] (plasma, 8 h, read-out: Blood drug concentration) stood at 0.695 µg/mL.

Turning to `O=S1(=O)c2cc(-c3nnc(C(F)F)o3)ccc2CN1[C@H](c1ccccn1)[C@H](O)c1ccc(F)cn1` [Compound 87], in series [1] (po, 5 mg/kg, read-out: C0/Cmax), the Cmax was found to be 5.75 µM. In series [1] (mice, IV 1 mg/kg), the AUC(0-inf) was 1.77 µM·h, the AUC(0-t) is 1.62 µM·h, the MRT inf is 0.8 h and the Vd was found to be 0.9 L/kg. In series [1] (mice, IV 1 mg/kg), this molecule yielded a CLz of 1.1 L/h/kg and a t½z of 0.6 h. Besides, in series [1] (mice, IV 1 mg/kg (C0)), the Cmax is 1.89 µM. Also, in series [1] (mice, PO 5 mg/kg), the AUC(0-inf) turned out to be 15.5 µM·h, the AUC(0-t) is 15.1 µM·h, the Tmax was found to be 1 h and the MRT inf was 2.3 h. Also, in series [1] (mice, PO 5 mg/kg), the F is given as 175.8% and the t½z worked out at 1.5 h. In series [2] (setting [3]), the concentration at 2 h stood at 0.298 µg/mL. Moreover, the Kp at 2 h in series [2] (brain/plasma) amounted to 0.28. In addition, the concentration at 2 h in series [2] (setting [4]) was 1.06 µg/mL.

As to `COC(=O)N[C@@H]1CCCC[C@H]1N1Cc2ccc(-c3nnc(C(F)F)o3)cc2S1(=O)=O` [Compound 92], on HDAC6, the IC50 was 0.164 µM. In other words, the sub-micromolar range.

At HDAC6, `CNC(=O)N[C@@H]1CCCC[C@H]1N1Cc2ccc(-c3nnc(C(F)F)o3)cc2S1(=O)=O` [Compound 94] showed a concentration for half-maximal inhibition (IC50) of 0.203 µM.
